# Experimental data published in patent US20250186403A1 (ARIZONA BOARD OF REGENTS ON BEHALF OF THE UNIVERSITY OF …, priority 2022, published 2025).
# Where “and” joins values, the source holds several entries; their conditions need not be identical. Identical values can stand only once.
# Experiments:
# [1] = test system: Prp8 intein splicing in Cne-WT; test: Western blot, in vivo Prp8 intein splicing in Cne; assay type: cell-based, Cryptococcus neoformans; conditions: Cne-WT incubated with CMN 18 h
# Description: TCEP is added to a final concentration of 100 µM and incubated for 24 h. The substrate Nano-Glo luciferase (Promega) was added, and the resulting luminescence was read. IC50 was calculated using GraphPad prism. […] TCEP was added to a concentration of 1 mM and incubated for 24 h. From this reaction mixture, 10 μl was mixed with an equal volume of 2×SDA-PAGE loading dye and loaded onto 12% SDS-PAGE gel without boiling the sample. The gel was scanned with UV using Chemidoc (Bio Rad), and band intensities were quantified using Image Lab software. […] Cells were harvested and washed in PBS, lysed with bead lyser, and centrifuged at 10,000 rpm. An equal quantity of protein (50 μg) from each treatment was loaded onto 12% SDS-PAGE and blotted onto the NC membrane, blocked with 5% skimmed milk. The membrane was probed with anti-prp8 intein rabbit polyclonal sera, followed by goat anti-rabbit HRP antibody. Signals were developed using a chemiluminescent kit. The density of the spliced intein bands (˜20 kDa) were quantified using Image lab software. A band at ˜130 kDa is uncharacterized, as explained below. NC: nitrocellulose. Abs: absorbance
# DMSO was used as a control. An equal volume of freshly grown Cne-WT culture (0.2 OD at 600 nm) was added to obtain the final absorbance of 0.1 OD. […] Intensities of bands were quantified by image lab software and compared with that of control.
# [2] = Cytotoxicity (Cell Counting Kit-8); assay type: cell-based; conditions: human, A549 cells
# Description: FIGS. 4A, 4B, and 4C show in vitro and in vivo toxicity. […] A549 and RAW 264.7 cells were grown in 96 well plates till 70% confluent. RAW 264.7 cells were differentiated into macrophages using PMA. […] The cell viability was estimated by Cell Counting Kit-8 (GlpBio, CA, USA), and absorbance was read at 450 nm using microplate reader Synergy H1 (BioTek). CC50 was calculated by GraphPad prism. […] Abs: absorbance. […] Bodyweight and other parameters were monitored daily (Table 3).
# Approximately 2×10^4 A549 cells in MEM media with 10% FBS were seeded per well of 96 well plates and incubated at 37° C. to reach 70% confluent. […] The plates were incubated for 48 h before the addition of 10 μl water-soluble […] (Cell counting kit-8, Glpbio Technology) to each well and incubated at 37° C. for 3 h.
# Pharmacokinetics in mice = assay type: in vivo; conditions: 40 mg/kg BW oral gavage, male C57BL/6 mice, plasma
# Description: Blood samples were collected at 0, 0.5, 1, 2, 4, 8, 12, 16, 24, and 36 h after oral gavage. […] Other PK parameters are in Table 4. The values represent means±SD. […] On day 0, mice were infected with H99 (10^7 cells/mice) intranasally or mock-infected with PBS. Mice were euthanized on day 5, and lungs were dissected out, homogenized in RPMI-1640-MOPS media, and plated onto Sabouraud dextrose agar plates containing antibiotics. Plates were incubated at 30° C. for 72 h, and colonies were counted. […] VC: Vehicle control, (90% corn oil, 10% DMSO). Dpi: Days post-infection. CFU: Colony-forming units.
# Pharmacokinetics in mice: C57BL/6 mice (male, 2-3 months old) were obtained from breeding stocks maintained at the University of Arizona. All mice were housed under conditions of controlled temperature (22° C.) with the on-off light cycle, food, and water provided ad libitum and were fasted for 12 h before administration of the compound. […] Blood samples were collected from the tail vein using heparinized capillary tubes at 0, 0.5, 1, 2, 4, 8, 12, 16, 24, and 36 h after oral gavage. Plasma was separated and stored at −30° C. until use. For extraction of the compound, 5 μl of plasma from each mouse were mixed with 30 μL methanol and 10 μl of internal standard (IS; UAWJ102 50 ng/ml). The mixture was vortexed for 30 seconds and diluted with 760 µL Milli Q water, and loaded onto an ISOLUTER C18 SPE Columns (1 ml/100 mg, Biotage, Salem, NH) pre-conditioned with 1 ml methanol followed by 1 ml water, and the cartridge was then washed with 1 ml water. The analytes were finally eluted from the cartridges with 1 ml methanol containing 5% ammonia solution, dried with nitrogen, and reconstituted in 100 μl methanol.
# The analyte was detected and quantified using LC-MS (Agilent 1290 UPLC system Agilent Technologies, Santa Clara, CA) and a Sciex Qtrap6500+ Mass Spectrometer (AB SCIEX, Framingham, MA). Analytes were separated on an EclipsePlus C18 column (2.1×50 mm, 1.8 μm, Agilent) at a temperature of 35° C., with mobile phase A containing 0.1% formic acid (v/v) in water and mobile phase B containing 0.1% formic acid (v/v) in methanol. Elution was at a flow rate of 0.2 mL/min as follows: 10% B (0-0.5 min), 10% B→95% B (0.5-3.5 min), 95% B (3.5-7 min), […] (7-7.1 min), 10% B (7.1-10 min). The MS was operated in the positive ion mode, using electrospray ionization. The ion spray voltage and temperature were set at 5000 V and 500° C., respectively. Curtain gas, ion source gas 1, and ion source gas 2 were set at 25, 50, 50 psi, respectively.
# [3] = test system: C. neoformans (Cne-Mut), inteinless mutant strain; test: MIC by microdilution method; assay type: cell-based; conditions: Cryptococcus neoformans, 48 h
# Description: Serial double dilution of the CMN was done in the RPMI-MOPS medium. Freshly grown fungal culture from the SD agar plate was resuspended in sterile water and diluted to get 0.1 OD at 600 nm. […] The plates were incubated at 30° C. for 48 h. Plates were checked for growth by visual observation. For Afu, resazurin was added to 44 µM and incubated for 12 h at 37° C. before noting a change in color from blue to pink by live cells. MIC is defined as the minimum concentration at which there is no growth when observed visually.
structure (smiles),measurement,setting,value
"CNc1ccc2oc(C[C@H]3O[C@@]4(CC[C@H]3C)O[C@H]([C@H](C)C(=O)c3ccc[nH]3)[C@H](C)C[C@H]4C)nc2c1C(=O)O [CMN, calcimycin]",spliced intein (approximately 20 kDa) in western blot,[1],dose-dependent reduction in spliced intein
same,CC50 at 48 h,[2],16.3 µM and 8.6 µg/mL
same,t½,Pharmacokinetics in mice; mean ± S.D. n = 5,7.2 h
same,Tmax,"Pharmacokinetics in mice; male, C57BL/6, mouse, po, 40 mg/kg, mean ± S.D. n = 5",~10 h
same,half-life,"Pharmacokinetics in mice; male, C57BL/6, mouse, po, 40 mg/kg, mean ± S.D. n = 5, read-out: t½ (converted)",7.6 h
same,Cmax,"Pharmacokinetics in mice; mouse, mean ± S.D. n = 5",301 ng/mL
same,MIC,[3],25.1 µg/mL and 48 µM
